Data published in the supplement of paper PMC10307832.

Legend:
Assay in all cases: relative viability (nuclei count vs DMSO), 5 days (fraction); higher = more cells survive
[1] = compound: CC1=CC(=NN1)NC2=CC(=NC(=N2)/C=C/C3=CC=CC=C3)N4CCN(CC4)C + Cc1nc(Nc2ncc(C(=O)Nc3c(C)cccc3Cl)s2)cc(N2CCN(CCO)CC2)n1 [Dasatinib] (partner 0.075 µM)
Method in brief: (§1)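 Nuclei were stained with Hoechst during a one-step fixation (final 0.05% Triton X-100, 1% formaldehyde, 1 ug/ml Hoechst) carried out 5 days after dosing, then counted on 4× images. The cells, lung cancer lines in 1536-well plates, had been dosed by pin tool the day after seeding with one drug alone or a fixed anchor-drug dose plus five library-drug doses (not always all listed) in √10 steps. Relative viability is the nuclei count in treated wells divided by that in vehicle wells, and each value is the median of duplicate plates.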

Bortezomib + Lapatinib = compound: CC(C)C[C@H](NC(=O)[C@H](Cc1ccccc1)NC(=O)c1cnccn1)B(O)O [Bortezomib] + CS(=O)(=O)CCNCc1ccc(-c2ccc3ncnc(Nc4ccc(OCc5cccc(F)c5)c(Cl)c4)c3c2)o1 [Lapatinib] (partner 2 µM)
Method in brief: as §1

Bortezomib + Crizotinib = compound: CC(C)C[C@H](NC(=O)[C@H](Cc1ccccc1)NC(=O)c1cnccn1)B(O)O [Bortezomib] + C[C@@H](Oc1cc(-c2cnn(C3CCNCC3)c2)cnc1N)c1c(Cl)ccc(F)c1Cl [Crizotinib] (partner 1 µM)
Method in brief: as §1

[2] = compound: CC1=CC(=NN1)NC2=CC(=NC(=N2)/C=C/C3=CC=CC=C3)N4CCN(CC4)C + O=C(c1cc(Cc2n[nH]c(=O)c3ccccc23)ccc1F)N1CCN(C(=O)C2CC2)CC1 [Olaparib] (partner 8 µM)
Method in brief: as §1

BEN
relative viability ([1]; first compound 0.08 µM): 0.339
relative viability ([1]; first compound 0.253 µM): 0.306
relative viability ([1]; first compound 0.8 µM): 0.32
relative viability ([1]; first compound 2.53 µM): 0.257
relative viability ([1]; first compound 8 µM): 0.164
relative viability (Bortezomib + Lapatinib; first compound 0.0002 µM): 0.72
relative viability (Bortezomib + Lapatinib; first compound 0.000632 µM): 0.74
relative viability (Bortezomib + Lapatinib; first compound 0.002 µM): 0.61
relative viability (Bortezomib + Lapatinib; first compound 0.006325 µM): 0.339
relative viability (Bortezomib + Lapatinib; first compound 0.02 µM): 0.114
relative viability (Bortezomib + Crizotinib; first compound 0.0002 µM): 0.78
relative viability (Bortezomib + Crizotinib; first compound 0.000632 µM): 0.821
relative viability (Bortezomib + Crizotinib; first compound 0.002 µM): 0.58
relative viability (Bortezomib + Crizotinib; first compound 0.006325 µM): 0.447
relative viability (Bortezomib + Crizotinib; first compound 0.02 µM): 0.134
relative viability ([2]; first compound 0.08 µM): 0.985
relative viability ([2]; first compound 0.253 µM): 1.17
relative viability ([2]; first compound 0.8 µM): 0.987
relative viability ([2]; first compound 2.53 µM): 0.606
relative viability ([2]; first compound 8 µM): 0.275

CAL-12T
relative viability ([1]; first compound 0.08 µM): 0.52
relative viability ([1]; first compound 0.253 µM): 0.38
relative viability ([1]; first compound 0.8 µM): 0.342
relative viability ([1]; first compound 2.53 µM): 0.0924
relative viability ([1]; first compound 8 µM): 0.0804
relative viability (Bortezomib + Lapatinib; first compound 0.0002 µM): 0.683
relative viability (Bortezomib + Lapatinib; first compound 0.000632 µM): 0.617
relative viability (Bortezomib + Lapatinib; first compound 0.002 µM): 0.561
relative viability (Bortezomib + Lapatinib; first compound 0.006325 µM): 0.246
relative viability (Bortezomib + Lapatinib; first compound 0.02 µM): 0.201
relative viability (Bortezomib + Crizotinib; first compound 0.0002 µM): 0.888
relative viability (Bortezomib + Crizotinib; first compound 0.000632 µM): 0.551
relative viability (Bortezomib + Crizotinib; first compound 0.002 µM): 0.61
relative viability (Bortezomib + Crizotinib; first compound 0.006325 µM): 0.241
relative viability (Bortezomib + Crizotinib; first compound 0.02 µM): 0.1
relative viability ([2]; first compound 0.08 µM): 0.714
relative viability ([2]; first compound 0.253 µM): 0.741
relative viability ([2]; first compound 0.8 µM): 0.714
relative viability ([2]; first compound 2.53 µM): 0.238
relative viability ([2]; first compound 8 µM): 0.237

COR-L23
relative viability ([1]; first compound 0.08 µM): 0.423
relative viability ([1]; first compound 0.253 µM): 0.445
relative viability ([1]; first compound 0.8 µM): 0.493
relative viability ([1]; first compound 2.53 µM): 0.143
relative viability ([1]; first compound 8 µM): 0.0623
relative viability (Bortezomib + Lapatinib; first compound 0.0002 µM): 0.814
relative viability (Bortezomib + Lapatinib; first compound 0.000632 µM): 1.1
relative viability (Bortezomib + Lapatinib; first compound 0.002 µM): 0.771
relative viability (Bortezomib + Lapatinib; first compound 0.006325 µM): 0.0607
relative viability (Bortezomib + Lapatinib; first compound 0.02 µM): 0.0542
relative viability (Bortezomib + Crizotinib; first compound 0.0002 µM): 0.669
relative viability (Bortezomib + Crizotinib; first compound 0.000632 µM): 0.581
relative viability (Bortezomib + Crizotinib; first compound 0.002 µM): 0.595
relative viability (Bortezomib + Crizotinib; first compound 0.006325 µM): 0.0447
relative viability (Bortezomib + Crizotinib; first compound 0.02 µM): 0.0472
relative viability ([2]; first compound 0.08 µM): 0.335
relative viability ([2]; first compound 0.253 µM): 0.339
relative viability ([2]; first compound 0.8 µM): 0.32
relative viability ([2]; first compound 2.53 µM): 0.126
relative viability ([2]; first compound 8 µM): 0.0705

COR-L 105
relative viability ([1]; first compound 0.08 µM): 0.388
relative viability ([1]; first compound 0.253 µM): 0.369
relative viability ([1]; first compound 0.8 µM): 0.302
relative viability ([1]; first compound 2.53 µM): 0.207
relative viability ([1]; first compound 8 µM): 0.153
relative viability (Bortezomib + Lapatinib; first compound 0.0002 µM): 0.358
relative viability (Bortezomib + Lapatinib; first compound 0.000632 µM): 0.354
relative viability (Bortezomib + Lapatinib; first compound 0.002 µM): 0.334
relative viability (Bortezomib + Lapatinib; first compound 0.006325 µM): 0.344
relative viability (Bortezomib + Lapatinib; first compound 0.02 µM): 0.349
relative viability (Bortezomib + Crizotinib; first compound 0.0002 µM): 0.673
relative viability (Bortezomib + Crizotinib; first compound 0.000632 µM): 0.741
relative viability (Bortezomib + Crizotinib; first compound 0.002 µM): 0.577
relative viability (Bortezomib + Crizotinib; first compound 0.006325 µM): 0.206
relative viability (Bortezomib + Crizotinib; first compound 0.02 µM): 0.215
relative viability ([2]; first compound 0.08 µM): 0.591
relative viability ([2]; first compound 0.253 µM): 0.688
relative viability ([2]; first compound 0.8 µM): 0.691
relative viability ([2]; first compound 2.53 µM): 0.658
relative viability ([2]; first compound 8 µM): 0.27

EKVX
relative viability ([1]; first compound 0.08 µM): 0.55
relative viability ([1]; first compound 0.253 µM): 0.579
relative viability ([1]; first compound 0.8 µM): 0.603
relative viability ([1]; first compound 2.53 µM): 0.499
relative viability ([1]; first compound 8 µM): 0.151
relative viability (Bortezomib + Lapatinib; first compound 0.0002 µM): 0.205
relative viability (Bortezomib + Lapatinib; first compound 0.000632 µM): 0.261
relative viability (Bortezomib + Lapatinib; first compound 0.002 µM): 0.208
relative viability (Bortezomib + Lapatinib; first compound 0.006325 µM): 0.204
relative viability (Bortezomib + Lapatinib; first compound 0.02 µM): 0.0816
relative viability (Bortezomib + Crizotinib; first compound 0.0002 µM): 0.942
relative viability (Bortezomib + Crizotinib; first compound 0.000632 µM): 0.894
relative viability (Bortezomib + Crizotinib; first compound 0.002 µM): 0.822
relative viability (Bortezomib + Crizotinib; first compound 0.006325 µM): 0.268
relative viability (Bortezomib + Crizotinib; first compound 0.02 µM): 0.106
relative viability ([2]; first compound 0.08 µM): 0.779
relative viability ([2]; first compound 0.253 µM): 0.804
relative viability ([2]; first compound 0.8 µM): 0.904
relative viability ([2]; first compound 2.53 µM): 0.695
relative viability ([2]; first compound 8 µM): 0.157

EMC-BAC-2
relative viability ([1]; first compound 0.08 µM): 0.308
relative viability ([1]; first compound 0.253 µM): 0.268
relative viability ([1]; first compound 0.8 µM): 0.298
relative viability ([1]; first compound 2.53 µM): 0.202
relative viability ([1]; first compound 8 µM): 0.0961
relative viability (Bortezomib + Lapatinib; first compound 0.0002 µM): 0.902
relative viability (Bortezomib + Lapatinib; first compound 0.000632 µM): 0.923
relative viability (Bortezomib + Lapatinib; first compound 0.002 µM): 0.966
relative viability (Bortezomib + Lapatinib; first compound 0.006325 µM): 0.652
relative viability (Bortezomib + Lapatinib; first compound 0.02 µM): 0.153
relative viability (Bortezomib + Crizotinib; first compound 0.0002 µM): 0.71
relative viability (Bortezomib + Crizotinib; first compound 0.000632 µM): 0.692
relative viability (Bortezomib + Crizotinib; first compound 0.002 µM): 0.766
relative viability (Bortezomib + Crizotinib; first compound 0.006325 µM): 0.199
relative viability (Bortezomib + Crizotinib; first compound 0.02 µM): 0.113
relative viability ([2]; first compound 0.08 µM): 0.465
relative viability ([2]; first compound 0.253 µM): 0.521
relative viability ([2]; first compound 0.8 µM): 0.445
relative viability ([2]; first compound 2.53 µM): 0.341
relative viability ([2]; first compound 8 µM): 0.197

EPLC-272H
relative viability ([1]; first compound 0.08 µM): 0.344
relative viability ([1]; first compound 0.253 µM): 0.37
relative viability ([1]; first compound 0.8 µM): 0.37
relative viability ([1]; first compound 2.53 µM): 0.15
relative viability ([1]; first compound 8 µM): 0.217
relative viability (Bortezomib + Lapatinib; first compound 0.002 µM): 1.03
relative viability (Bortezomib + Lapatinib; first compound 0.006325 µM): 0.671
relative viability (Bortezomib + Lapatinib; first compound 0.02 µM): 0.167
relative viability (Bortezomib + Crizotinib; first compound 0.002 µM): 0.972
relative viability (Bortezomib + Crizotinib; first compound 0.006325 µM): 0.584
relative viability (Bortezomib + Crizotinib; first compound 0.02 µM): 0.07
relative viability ([2]; first compound 0.08 µM): 0.725
relative viability ([2]; first compound 0.253 µM): 0.901
relative viability ([2]; first compound 0.8 µM): 0.496
relative viability ([2]; first compound 2.53 µM): 0.12
relative viability ([2]; first compound 8 µM): 0.0643

H3255
relative viability ([1]; first compound 0.08 µM): 0.346
relative viability ([1]; first compound 0.253 µM): 0.347
relative viability ([1]; first compound 0.8 µM): 0.352
relative viability ([1]; first compound 2.53 µM): 0.427
relative viability ([1]; first compound 8 µM): 0.242
relative viability (Bortezomib + Lapatinib; first compound 0.0002 µM): 0.261
relative viability (Bortezomib + Lapatinib; first compound 0.000632 µM): 0.209
relative viability (Bortezomib + Lapatinib; first compound 0.002 µM): 0.24
relative viability (Bortezomib + Lapatinib; first compound 0.006325 µM): 0.191
relative viability (Bortezomib + Lapatinib; first compound 0.02 µM): 0.179
relative viability (Bortezomib + Crizotinib; first compound 0.0002 µM): 0.734
relative viability (Bortezomib + Crizotinib; first compound 0.000632 µM): 0.914
relative viability (Bortezomib + Crizotinib; first compound 0.002 µM): 0.452
relative viability (Bortezomib + Crizotinib; first compound 0.006325 µM): 0.195
relative viability (Bortezomib + Crizotinib; first compound 0.02 µM): 0.208
relative viability ([2]; first compound 0.08 µM): 0.553
relative viability ([2]; first compound 0.253 µM): 0.568
relative viability ([2]; first compound 0.8 µM): 0.599
relative viability ([2]; first compound 2.53 µM): 0.575
relative viability ([2]; first compound 8 µM): 0.326
